In publication doi:10.1101/801928v2 (biorxiv, 2019):

molecular target: T1, HmtS (Streptomyces himastatinicus, UniProt G0LWB2); experiment: microscale thermophoresis, NT647-labelled enzyme; assay type: binding
T1 sequence (G0LWB2 2-397): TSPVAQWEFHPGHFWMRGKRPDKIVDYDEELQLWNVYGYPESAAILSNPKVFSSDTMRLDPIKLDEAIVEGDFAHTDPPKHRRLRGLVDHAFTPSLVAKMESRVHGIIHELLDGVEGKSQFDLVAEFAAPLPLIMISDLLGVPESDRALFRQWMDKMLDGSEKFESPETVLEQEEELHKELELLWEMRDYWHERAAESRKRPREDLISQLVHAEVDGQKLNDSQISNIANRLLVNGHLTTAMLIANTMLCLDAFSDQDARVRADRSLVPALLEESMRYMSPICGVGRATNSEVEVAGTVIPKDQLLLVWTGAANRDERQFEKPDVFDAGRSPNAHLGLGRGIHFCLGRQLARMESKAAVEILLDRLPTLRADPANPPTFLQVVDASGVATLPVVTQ

Kd [µM] | Structure (SMILES)
43 | Cc1cc2nc3c(=O)[nH]c(=O)nc-3n(C[C@H](O)[C@H](O)[C@H](O)COP(=O)(O)OP(=O)(O)OC[C@H]3O[C@@H](n4cnc5c(N)ncnc54)[C@H](O)[C@@H]3O)c2cc1C [FAD]
40 | Cc1cc2nc3c(=O)[nH]c(=O)nc-3n(C[C@H](O)[C@H](O)[C@H](O)COP(=O)(O)O)c2cc1C [FMN]
1.9 | Cc1cc2nc3c(=O)[nH]c(=O)nc-3n(C[C@H](O)[C@H](O)[C@H](O)CO)c2cc1C [riboflavin]
83 | NC(=O)C1=CN([C@@H]2O[C@H](COP(=O)(O)OP(=O)(O)OC[C@H]3O[C@@H](n4cnc5c(N)ncnc54)[C@H](OP(=O)(O)O)[C@@H]3O)[C@@H](O)[C@H]2O)C=CC1 [NADPH]
